Measured values published in patent US9011820B2, “Screening tool for antiviral agents” (Saint Louis University, priority 2007, dated 2015).
Like-named read-outs stand apart in the source and are kept apart here.

Tests used:
HaK tumors = assay type: in vivo, hamsters; conditions: CP twice weekly
Description: In an illustrative example, a tumor experiment in hamsters immunosuppressed with cyclophosphamide (CP) was conducted. Hamsters with very large (about 1.1 ml mean) established tumors (formed by the hamster renal cancer cell line named HaK) were treated with CP on day 1, then starting on day 4 the tumors were injected with VRX-007, Ad5, or buffer. CP was administered twice weekly throughout the study. […] Established large, about 1.1 ml, subcutaneous HaK tumors were injected intratumorally (6 injections, 1×10^10 PFU each) with VRX-007, wild-type Ad5, or vehicle (saline only). For each of these treatments, one group was immunosuppressed with CP and one group remained immunocompetent. Tumor volumes were measured with digital calipers twice per week. […] The tumors are from the 42 day time point.

Ad5 [1] = experiment: HDP-CDV in Ad5-infected normal and CP-immunosuppressed Syrian hamsters; assay type: in vivo; conditions: 2.5 mg/kg oral gavage daily for 6 days, Days 3 and 6
Description: FIGS. 12A-12D are graphical representations illustrating HDP-CDV decreasing adenovirus induced liver toxicity and viral load.
Syrian hamsters (females, average weight 98 g) were immunosuppressed with twice weekly injections of cyclophosphamide (starting on Day −6; 140 mg/kg i.p. for the first dose, then 100 mg/kg). On Day 0, the animals were injected intravenously (into the jugular vein) with 1.9×10^12 vp/kg (ca. 3×10^10 PFU/animal) of Ad5 or AdCMVpA, and half of them were treated with HDPCDV (2.5 mg/kg via oral gavage daily for 6 days, starting on Day −1). On Days 3 and 6, hamsters were sacrificed and their sera were analyzed for transaminases (panel A=ALT; panel B=AST) and bilirubin (panel C). Infectious virus titers in the liver were determined, by TCID50 assays; the dashed line in the graph marks the threshold of quantifiability, horizontal lines represent group means, n-4, except for clinical chemistry for the Ad5 CP group on Day 6 (n=2); the error bars represent standard deviation.

Ad5 [2] = experiment: HDP-CDV in Ad5-infected immunosuppressed mice; assay type: in vivo; conditions: daily 2.5 mg/kg oral gavage
Description: Immunocompetent mice and mice immunosuppressed with CP were injected intravenously with 1.5×10^11 vp/kg of Ad5 or AdCMVpA, a replication defective adenovirus. Half of the animals in each group were treated via oral gavage with daily doses of 2.5 mg/kg of HDP-CDV, starting a day before virus injection. At the indicated times, mice were sacrificed and infectious virus titers in the liver were determined.

Ad = conditions: cited from earlier work
Ad5 [3] = conditions: cotton rat; cited from earlier work
[4] = in vivo; cited from earlier work
Ad5 [5] = conditions: rabbit; cited from earlier work
Ad ocular infections = conditions: large multi-center trial, humans, cited from earlier work
[6] = system: Ad serotypes 1, 2, 5, and 8; conditions: cited from earlier work
[7] = system: Ad serotypes from Species A, B, C, D, E, and F in HEp-2 cells; conditions: cited from earlier work
VRX-007 = experiment: Cidofovir inhibition of VRX-007 replication in A549 cells (crystal violet staining); assay type: cell-based, human adenovirus; conditions: 10 or 0.1 PFU/cell, stained seven days post infection
Description: A549 cells were mock-infected or infected with 10 or 0.1 plaque-forming units (PFU)/cell of VRX-007. Concomitantly, cidofovir was added to the medium at the indicated concentrations. The cells were stained with crystal violet dye at seven days post infection. Cidofovir has shown some efficacy in the rabbit and cotton rat models of ocular models of Ad5 infection.

[8] = prospective study, eight pediatric stem cell transplant patients

O=P1(N(CCCl)CCCl)NCCCO1 (stereo not shown) [CP, cyclophosphamide]
growth of buffer-injected tumors (HaK tumors): did not affect growth
total white blood cell (WBC) count (CP twice weekly): dropped to very low levels by day 12
hemoglobin level (average) (CP-treated hamsters, end of experiment (42 days), 15.95 g/dl at the start): 6.95 g/dL
red blood cells (RBC) (CP-treated hamsters, end of experiment, 8.39×10^6/mm^3 at the start): 3.96×10^6 mm^3

CCCCCCCCCCCCCCCCOCCCOP(=O)(O)CO[C@H](CO)Cn1ccc(N)nc1=O [HDP-CDV, Hexadecyloxypropyl-cidofovir]
adenoviral loads (infectious virus titers in the liver, TCID50) (Ad5 [1]): effectively and significantly reduces
liver toxicity (ALT, AST, bilirubin) (Ad5 [1]): effectively and significantly reduces liver toxicity
replication of Ad5 (infectious virus titers in the liver) (Ad5 [2]): suppressing the replication

Nc1ccn(C[C@@H](CO)OCP(=O)(O)O)c(=O)n1 [cidofovir, (S)-9-[3-hydroxy-2-(phosphonomethyloxy)propyl] cytosine]
toxicity of systemic use (Ad; accumulation of the drug in renal proximal tubules): nephrotoxicity
efficacy against Ad-associated hemorrhagic cystitis and renal dysfunction (Ad; bone marrow transplant patients): effective
resolution of Ad infection in case reports (Ad; disseminated Ad in pediatric liver transplant patient, Ad7 in B cell lymphoma adult patient with meningoencephalitis): seemed to resolve
efficacy against Ad (Ad; patients immunosuppressed because of stem cell and bone marrow transplants): some efficacy
dose-limiting nephrotoxicity (Ad; [8]): without dose-limiting nephrotoxicity
suppression of Ad (Ad; [8]): seemed to provide long term suppression of Ad
efficacy in ocular model of Ad5 infection (Ad5 [3]): some efficacy
oral bioavailability [4]: poor oral bioavailability
efficacy in ocular model of Ad5 infection (Ad5 [5]): some efficacy
efficacy against Ad ocular infections (Ad ocular infections): Significant efficacy
efficacy/toxicity ratio (Ad ocular infections; trial discontinued): narrow efficacy/toxicity ratio
inhibition of Ad replication in cell culture [6]: potent, nontoxic inhibitor
inhibition of Ad replication by species [7]: inhibited replication in HEp-2 cells of serotypes from Species A, B, D, E, and F
inhibition of replication of VRX-007 (VRX-007): inhibits the replication

NC(=O)c1ncn([C@@H]2O[C@H](CO)[C@@H](O)[C@H]2O)n1 [ribavirin]
inhibition of Ad replication by species [7]: Only Species C was inhibited
